In article PMC7046148 (Scientific Reports, 2020):
“Also recorded” adds a separate entry of the source.

Columns and labels:
Gibco hiPSCs [1] = test: 3D chondrogenic differentiation after LPM differentiation, DMMB assay for sGAG; type: cell-based, human; conditions: during 2 d LPM differentiation, then 18 d chondrogenic differentiation; for sGAG/DNA content compared to the DMSO control: thalidomide 20 µM, atRA 3 µM; for reduction of sGAG/DNA content upon chondrogenic differentiation in 3D: thalidomide at 20 µM, atRA at 3 µM
Protocol: (§1) For 3D differentiation studies, Gibco hiPSCs were encapsulated in fibrin at 2–4 × 10^6 cells/mL. hiPSCs were passaged with Versene (as described above) and were suspended as small clumps in a solution composed of a 1:4:5:10 dilution of 200 mM CaCl2 in DI water, 50 U/mL human thrombin (Sigma) in 0.1% cell culture BSA in DI water, DPBS, and hiPSC suspension in mTeSR1. The hiPSC suspension was mixed by pipetting, and 0.5 µL droplets of suspended hiPSCs were plated at the bottom of each well of a round-bottom sterile polypropylene plate. hiPSC suspensions were subsequently diluted 5-fold by pipetting up and down in each well with 2 µL of 10 mg/mL human fibrinogen (Sigma) in DPBS (sterile filtered prior to use). Fibrin clot formation proceeded for 10 minutes at room temperature prior to addition of mTeSR-1 and incubation under normal culture conditions overnight. […] For chondrogenic differentiation experiments, cells were cultured in APEL2 + GSKi for the described duration, followed by culture in ACF MesenCult chondrogenic differentiation medium (Stem Cell Technologies) for 17–20 days under normal culture conditions. Encapsulated hiPSCs were characterized by qRT-PCR as described above, except cells were lysed by bead-based homogenization (Bead Mill 4, Thermo Fisher) in buffer RLT that was supplemented with 1% β-mercaptoethanol. RNeasy procedure was carried out per manufacturer’s instructions, including the optional DNase step. Purified RNA samples were stored at −20 °C before analysis using Taqman primer/probes (Thermo Fisher) and fast advanced master mix (Thermo Fisher) on a QuantStudio 5 (Thermo). Samples were compared using normalization to the ACTB in each sample and the control for each experiment using the 2^−ΔΔCT method.
Alternatively, encapsulated hiPSCs were characterized for sulfated glycosaminoglycan (sGAG) content using the dimethylmethylene blue (DMMB) assay protocol[33],[34]. […] After addition of DMMB assay buffer, samples were immediately read at 525 nm, and sGAG composition was calculated in each sample by comparison to a chondroitin sulfate standard that was dissolved in digestion buffer. sGAG content (in µg/mL) was normalized to dsDNA content (in µg/mL) in each sample.
Figure 7 Characterization of hiPSC chondrogenic differentiation in 3D by DMMB assay for sulfated glycosaminoglycans. Chondrogenic differentiation of hiPSCs was assessed by culturing hiPSCs in fibrin gels followed by culture in APEL2/GSKi and subsequent culture in chondrogenic differentiation medium for a total of 21 days in culture after encapsulation. The influence of the duration of LPM differentiation or of chemical treatment during LPM differentiation (for 2 days) on chondrogenic differentiation was assessed by sulfated glycosaminoglycan assay on day 21. […]

XCL-1 hiPSC SALL4^G416A = test: LPM differentiation assay (FOXF1 high content imaging), XCL-1 SALL4^G416A clone; conditions: Homo sapiens, 48 h, read-out: IC50 (±SEM) in LPM differentiation assay
Protocol: (§2) hiPSCs (Gibco or XCL-1 clones) were grown in mTeSR-1 on Matrigel, passaged into small clumps with Versene (4.5 min under normal culture conditions), counted as a single-cell suspension as described above, and seeded as small clumps at approximately 10,000 cells/well (30,000 cells/cm^2, ~15% confluence) in 100 µL mTeSR1 on Matrigel-coated µClear® 96-well plates (Greiner) for 1 d under normal culture conditions. On the day after seeding, the medium was replaced with 100 µL/well of mTeSR-1 (control) or APEL2 + GSKi containing either DMSO or diluted compounds (for a final DMSO concentration of 0.2%). The same conditions were replenished the following day for a total of 2 d of differentiation, and the following day (3 d after seeding), the medium was aspirated, and hiPSCs were fixed in 10% NBF for 15 min at room temperature.
(§3) Immunofluorescence staining was carried out by fixing/permeabilizing cells overnight in blocking buffer containing 3% BSA (Sigma) in DPBS-T, which contains DPBS + Ca^2+//Mg^2+ with 0.3% Triton-X100 (Sigma). Fixed and permeabilized cells were incubated in primary antibodies diluted (as noted in Table 1) in antibody buffer, consisting of 1% BSA in DPBS-T, overnight at 4 °C.
(§4) Cells were washed in blocking buffer for >6 hours at 4 °C and subsequently incubated in secondary antibody diluted in antibody buffer overnight at 4 °C. Secondary antibodies were washed out in antibody buffer for >4 h at 4 °C, and hiPSCs were counterstained with DAPI (Fisher) at 10 µg/mL in DPBS-T for 2 h. hiPSCs were washed in DPBS-T for >2 h at 4 °C, and immediately before imaging, the DPBS-T was replaced with DPBS. […] Chemical dose-response experiments and experiments examining the time-course of marker expression during LPM differentiation were imaged at 10X magnification using the Cellomics ArrayScan or CellInsight Cx7 LZR High Content Screening Platform and HCS Studio Cell Analysis Software (Thermo Fisher). An artificial threshold was uniformly applied to all images to generate the percentage of DAPI+ nuclei that stained positively for FOXF1 or NANOG. Thresholding for FOXF1 and T was performed relative to undiffer-entiated hiPSCs, and thresholding for SALL4 and OCT4 was performed relative to a non-expressing cell type (human primary endothelial cells). Settings for image acquisition and processing were uniformly applied between XCL-1 clones. […] Experiments were repeated in quadruplicate unless otherwise stated, and data are presented as mean ± SEM. Nonlinear regression analysis was performed using the 4-parameter [inhibitor]-vs-response curve fitting algorithm in Prism (GraphPad).
In addition, XCL-1 hiPSCs were engineered with CRISPR/Cas9 to express a homozygous SALL4 G416A mutation (hereafter referred to as the SALL4^G416A clone), and the homozygous SALL4 G416A mutation was confirmed by next-generation sequencing (Supplementary Fig. 2).

XCL-1 hiPSC SALL4 Mock = test: LPM differentiation assay (FOXF1 high content imaging), XCL-1 SALL4 Mock clone; conditions: Homo sapiens, 48 h, read-out: IC50 (±SEM) in LPM differentiation assay
Protocol: as §2, §3, §4

Gibco hiPSCs [2] = test: qRT-PCR of 3D fibrin cultures of hiPSCs during LPM differentiation; type: cell-based, human; conditions: thalidomide 20 µM, atRA 3 µM, 2 d in APEL2+GSKi, fibrin 3D
Protocol: as §1, with “Encapsulated hiPSCs were characterized by qRT-PCR as described above, except cells were lysed by bead-based homogenization (Bead Mill 4, Thermo Fisher) in buffer RLT that was supplemented with 1% β-mercaptoethanol. RNeasy procedure was carried out per manufacturer’s instructions, including the optional DNase step. Purified RNA samples were stored at −20 °C before analysis using Taqman primer/probes (Thermo Fisher) and fast advanced master mix (Thermo Fisher) on a QuantStudio 5 (Thermo). Samples were compared using normalization to the ACTB in each sample and the control for each experiment using the 2^−ΔΔCT method.” left out
(black bars). Data are presented as mean ± SEM of the log2 fold change calculated from each sample relative to the ACTB housekeeper control and the DMSO control (normalized via the 2-ΔΔCT method) from three independent experiments. […]

O=C1CCC(N2C(=O)c3ccccc3C2=O)C(=O)N1 (stereo not shown) [Thalidomide, thalidomide]
sGAG/DNA content compared to the DMSO control (Gibco hiPSCs [1]): decreased sGAG/DNA content
reduction of sGAG/DNA content upon chondrogenic differentiation in 3D (Gibco hiPSCs [1]): 30%
IC50 (XCL-1 hiPSC SALL4^G416A): > 50 µM
IC50 (XCL-1 hiPSC SALL4 Mock): 0.69 ± 0.5 µM
effect on marker gene expression in 3D LPM differentiation (Gibco hiPSCs [2]): reduced FOXF1 and KDR expression

CC1=C(/C=C/C(C)=C/C=C/C(C)=C/C(=O)O)C(C)(C)CCC1 [atRA, all-trans retinoic acid]
sGAG/DNA content compared to the DMSO control (Gibco hiPSCs [1]): decreased sGAG/DNA content
reduction of sGAG/DNA content upon chondrogenic differentiation in 3D (Gibco hiPSCs [1]): complete abolishment
IC50 (XCL-1 hiPSC SALL4^G416A): 9.1 ± 5.9 µM
IC50 (XCL-1 hiPSC SALL4 Mock): 2.94 ± 1.2 µM
effect on marker gene expression in 3D LPM differentiation (Gibco hiPSCs [2]): reduced FOXF1 and KDR expression; also recorded: reduced the expression of TBXT and GATA4
